Paper PMC10959927, “Platinum iodido drugs show potential anti-tumor activity, affecting cancer cell metabolism and inducing ROS and senescence in gastrointestinal cancer cells” (Communications Biology, 2024)
Values joined by “and” are separate entries in the source; they are usually repeats but may differ in a detail not shown here. Equal values may be shown once.

Columns and labels:
Format in all cases: cell-based, human
MKN45 cells [1] = experiment: Seahorse XF OCR, ECAR and energy map; set-up: Basal resp. / Maximal resp. / SRC: unit not given here
Description: (§1) Oxygen Consumption Rate (OCR), Extra Cellular Acidification Rate (ECAR) and Energy map measurements. Cells were plated in XF HS Miniplates (Seahorse Bioscience) at a cellular density of 1 × 10^4 cells/well and incubated overnight. […] After an OCR baseline measurement, the minimum oxygen consumption was determined by adding 1.5 µM oligomycin (O) and the maximal respiration rate was assessed by adding 1 µM carbonyl cyanide p-trifluoro methoxyphenylhydrazone (FCCP, F). At the end of the experiment, the non-mitochondrial oxygen consumption was evaluated by adding both 0.5 µM rotenone (R) and antimycin (A). Experiments were run in a XF HS Mini analyzer (Seahorse Agilent), and raw data were normalized to total protein using a BCA protein assay kit (Cat. no. 23225, Thermo Scientific).

PANC1 cells [2] = experiment: Seahorse XF OCR, ECAR and energy map; set-up: Basal resp. / Maximal resp. / SRC: unit not given here
Description: as §1

PANC1 cells [3] = experiment: ROS detection by confocal microscopy (DHE, MitoSox); conditions: PANC1, 1 h treatment; H2O2 200 µM, CDDP 10 µM, I5 20 µM, I6 20 µM
Description: Tumor cells were seeded at a density of 3 × 10^5 cells in 15 µm 8-well IBIDI plates and incubated overnight. […] Subsequently, cells were stained with 10 μM of dihydroethidium (DHE, cytosolic O2^·- probe, Sigma-Aldrich) or with 5 μM of Mitosox (mitochondrial O2^·- probe, Sigma-Aldrich) for 15–30 min[79] and then visualized on a confocal microscope (Confocal LSM 710 Zeiss, Biomedical Research Institute Alberto Sols, IIBm-CSIC-UAM, Madrid, Spain). The image analysis was realized using the software program Image J.

AGS cells [4] = experiment: Seahorse XF OCR, ECAR and energy map
Description: as §1

MKN45 cells [5] = experiment: ATP determination assay (bioluminescence); conditions: replicates
Description: (§2) ATP determination assay. […] The analysis was performed using the ATP Bioluminescense Assay Kit CLS II (Cat. no. 11699695001, Roche) according to the manufacturer’s instructions. […] Data were normalized to total protein using the BCA protein assay kit (Thermo Scientific).

AGS cells [6] = experiment: ATP determination assay (bioluminescence); conditions: replicates
Description: as §2

PANC1 cells [7] = experiment: ATP determination assay (bioluminescence); conditions: replicates
Description: as §2

SMILES: CC(C)[NH][Pt@SP1]([I])([I])[NH]C(C)C [I6, cis-[PtI2(isopropylamine)2]]
- ECAR, Mean (energy map) (MKN45 cells [1]; MKN45 (with I5)): 17.85 mpH/min/absorbance
- OCR, Mean (energy map) (MKN45 cells [1]; MKN45 (with I5)): 73.36 pmol/min/absorbance
- ECAR (energy map) (MKN45 cells [1]; MKN45 (with I6)): 73.12 mpH/min/absorbance
- ECAR, Mean (energy map) (MKN45 cells [1]; MKN45 (with I6)): 230.729 mpH/min/absorbance
- OCR (energy map) (MKN45 cells [1]; MKN45 (with I6)): 230.7 pmol/min/absorbance
- OCR, Mean (energy map) (MKN45 cells [1]; MKN45 (with I6)): 73.1182 pmol/min/absorbance
- ATP-product. coupled resp. (MKN45 cells [1]; MKN45, IC50 24 h): 104.06 and 161.5 and 167.13
- Basal resp. (MKN45 cells [1]; MKN45, IC50 24 h): 127.94 and 199.95 and 209.1
- Maximal resp. (MKN45 cells [1]; MKN45, IC50 24 h): 239.39 and 365.62 and 377.71
- SRC (MKN45 cells [1]; MKN45, IC50 24 h): 111.45 and 165.66 and 168.61
- effect on ECAR (MKN45 cells [1]; MKN45, IC50 24 h): no apparent effect
- OCR (MKN45 cells [1]; MKN45, IC50 24 h, time 1.53 min (I5) / 1.53 min (I6)): 147.857 pmoles/min/µg protein and 218.375 pmoles/min/µg protein and 227.071 pmoles/min/µg protein
- OCR (MKN45 cells [1]; MKN45, IC50 24 h, time 8.04 min (I5) / 8.03 min (I6)): 138.707 pmoles/min/µg protein and 201.479 pmoles/min/µg protein and 205.427 pmoles/min/µg protein
- OCR (MKN45 cells [1]; MKN45, IC50 24 h, time 14.51 min (I5) / 14.5 min (I6)): 135.932 pmoles/min/µg protein and 195.066 pmoles/min/µg protein and 199.064 pmoles/min/µg protein
- OCR (MKN45 cells [1]; MKN45, IC50 24 h, time 21.06 min (I5) / 21.09 min (I6)): 69.6082 pmoles/min/µg protein and 82.0209 pmoles/min/µg protein and 78.1047 pmoles/min/µg protein
- OCR (MKN45 cells [1]; MKN45, IC50 24 h, time 27.57 min (I5) / 27.59 min (I6)): 57.4221 pmoles/min/µg protein and 74.9291 pmoles/min/µg protein and 73.3602 pmoles/min/µg protein
- OCR (MKN45 cells [1]; MKN45, IC50 24 h, time 34.08 min (I5) / 34.07 min (I6)): 57.8854 pmoles/min/µg protein and 73.9423 pmoles/min/µg protein and 73.7207 pmoles/min/µg protein
- OCR (MKN45 cells [1]; MKN45, IC50 24 h, time 40.66 min (I5) / 40.62 min (I6)): 219.523 pmoles/min/µg protein and 319.315 pmoles/min/µg protein and 325.525 pmoles/min/µg protein
- OCR (MKN45 cells [1]; MKN45, IC50 24 h, time 53.68 min (I5) / 53.58 min (I6)): 193.975 pmoles/min/µg protein and 265.77 pmoles/min/µg protein and 274.483 pmoles/min/µg protein
- OCR (MKN45 cells [1]; MKN45, IC50 24 h, time 60.27 min (I5) / 60.14 min (I6)): 39.9791 pmoles/min/µg protein and 45.1028 pmoles/min/µg protein and 42.2414 pmoles/min/µg protein
- OCR (MKN45 cells [1]; MKN45, IC50 24 h, time 66.75 min (I5) / 66.62 min (I6)): 39.1246 pmoles/min/µg protein and 45.4375 pmoles/min/µg protein and 44.5027 pmoles/min/µg protein
- OCR (MKN45 cells [1]; MKN45, IC50 24 h, time 73.23 min (I5) / 73.1 min (I6)): 38.1003 pmoles/min/µg protein and 46.0211 pmoles/min/µg protein and 46.1344 pmoles/min/µg protein
- ECAR, Mean (energy map) (PANC1 cells [2]; PANC1 (with I5)): 7.18 mpH/min/absorbance
- OCR, Mean (energy map) (PANC1 cells [2]; PANC1 (with I5)): 8.75 pmol/min/absorbance
- ECAR (energy map) (PANC1 cells [2]; PANC1 (with I6)): 32.52 mpH/min/absorbance
- ECAR, Mean (energy map) (PANC1 cells [2]; PANC1 (with I6)): 146.969 mpH/min/absorbance
- OCR (energy map) (PANC1 cells [2]; PANC1 (with I6)): 147 pmol/min/absorbance
- OCR, Mean (energy map) (PANC1 cells [2]; PANC1 (with I6)): 32.5207 pmol/min/absorbance
- ATP-product. coupled resp. (PANC1 cells [2]; PANC1, IC50 24 h): 76.46 and 74.62 and 73.2
- Basal resp. (PANC1 cells [2]; PANC1, IC50 24 h): 102.88 and 97.93 and 95.39
- Maximal resp. (PANC1 cells [2]; PANC1, IC50 24 h): 174.57 and 152.73 and 164.59
- SRC (PANC1 cells [2]; PANC1, IC50 24 h): 71.69 and 54.8 and 69.2
- effect on ECAR (PANC1 cells [2]; PANC1, IC50 24 h): no apparent effect
- OCR (PANC1 cells [2]; PANC1, IC50 24 h, time 1.53 min (I5) / 1.53 min (I6)): 159.562 pmoles/min/µg protein and 146.086 pmoles/min/µg protein and 145.09 pmoles/min/µg protein
- OCR (PANC1 cells [2]; PANC1, IC50 24 h, time 8.03 min (I5) / 8.01 min (I6)): 147.434 pmoles/min/µg protein and 135.357 pmoles/min/µg protein and 133.103 pmoles/min/µg protein
- OCR (PANC1 cells [2]; PANC1, IC50 24 h, time 14.5 min (I5) / 14.5 min (I6)): 143.038 pmoles/min/µg protein and 132.495 pmoles/min/µg protein and 129.978 pmoles/min/µg protein
- OCR (PANC1 cells [2]; PANC1, IC50 24 h, time 21.08 min (I5) / 21.07 min (I6)): 66.5745 pmoles/min/µg protein and 57.8765 pmoles/min/µg protein and 56.7739 pmoles/min/µg protein
- OCR (PANC1 cells [2]; PANC1, IC50 24 h, time 27.58 min (I5) / 27.55 min (I6)): 66.0035 pmoles/min/µg protein and 58.3571 pmoles/min/µg protein and 57.0179 pmoles/min/µg protein
- OCR (PANC1 cells [2]; PANC1, IC50 24 h, time 34.08 min (I5) / 34.04 min (I6)): 69.58 pmoles/min/µg protein and 62.2166 pmoles/min/µg protein and 61.4483 pmoles/min/µg protein
- OCR (PANC1 cells [2]; PANC1, IC50 24 h, time 40.66 min (I5) / 40.6 min (I6)): 214.725 pmoles/min/µg protein and 187.294 pmoles/min/µg protein and 199.178 pmoles/min/µg protein
- OCR (PANC1 cells [2]; PANC1, IC50 24 h, time 47.17 min (I5) / 47.09 min (I6)): 200.494 pmoles/min/µg protein and 175.489 pmoles/min/µg protein and 184.522 pmoles/min/µg protein
- OCR (PANC1 cells [2]; PANC1, IC50 24 h, time 53.68 min (I5) / 53.58 min (I6)): 196.779 pmoles/min/µg protein and 170.973 pmoles/min/µg protein and 177.854 pmoles/min/µg protein
- OCR (PANC1 cells [2]; PANC1, IC50 24 h, time 60.22 min (I5) / 60.14 min (I6)): 40.9467 pmoles/min/µg protein and 34.6667 pmoles/min/µg protein and 34.4666 pmoles/min/µg protein
- OCR (PANC1 cells [2]; PANC1, IC50 24 h, time 66.71 min (I5) / 66.63 min (I6)): 41.5272 pmoles/min/µg protein and 35.8152 pmoles/min/µg protein and 35.5577 pmoles/min/µg protein
- OCR (PANC1 cells [2]; PANC1, IC50 24 h, time 73.19 min (I5) / 73.15 min (I6)): 40.1567 pmoles/min/µg protein and 34.5626 pmoles/min/µg protein and 34.5904 pmoles/min/µg protein
- DHE fluorescence intensity (per cell), cytosolic O2•− (PANC1 cells [3]): 98.4842 and 86.3637 and 85.797 and 82.1548 and 76.0203 and 75.3191
- Mitosox fluorescence intensity (per cell), mitochondrial O2•− (PANC1 cells [3]): 91.9093 and 80.7891 and 70.3911 and 69.2294 and 66.6051 and 57.9644
- ECAR, Mean (energy map) (AGS cells [4]; AGS (with I5)): 23.74 mpH/min/absorbance
- OCR, Mean (energy map) (AGS cells [4]; AGS (with I5)): 42.84 pmol/min/absorbance
- ECAR (energy map) (AGS cells [4]; AGS (with I6)): 45.46 mpH/min/absorbance
- ECAR, Mean (energy map) (AGS cells [4]; AGS (with I6)): 48.0093 mpH/min/absorbance
- OCR (energy map) (AGS cells [4]; AGS (with I6)): 48.01 pmol/min/absorbance
- OCR, Mean (energy map) (AGS cells [4]; AGS (with I6)): 45.4641 pmol/min/absorbance
- effect on ECAR (AGS cells [4]; AGS, IC50 24 h): no apparent effect
- OCR (AGS cells [4]; AGS, IC50 24 h, time 1.53 min (I5) / 1.53 min (I6)): 30.1319 pmoles/min/µg protein and 31.3797 pmoles/min/µg protein and 53.7109 pmoles/min/µg protein
- OCR (AGS cells [4]; AGS, IC50 24 h, time 8.04 min (I5) / 8.02 min (I6)): 24.9329 pmoles/min/µg protein and 27.5046 pmoles/min/µg protein and 48.0298 pmoles/min/µg protein
- OCR (AGS cells [4]; AGS, IC50 24 h, time 14.54 min (I5) / 14.51 min (I6)): 26.4797 pmoles/min/µg protein and 27.4562 pmoles/min/µg protein and 48.9415 pmoles/min/µg protein
- OCR (AGS cells [4]; AGS, IC50 24 h, time 21.13 min (I5) / 21.08 min (I6)): 22.9934 pmoles/min/µg protein and 21.9038 pmoles/min/µg protein and 30.7096 pmoles/min/µg protein
- OCR (AGS cells [4]; AGS, IC50 24 h, time 27.59 min (I5) / 27.57 min (I6)): 20.5189 pmoles/min/µg protein and 20.6073 pmoles/min/µg protein and 30.1901 pmoles/min/µg protein
- OCR (AGS cells [4]; AGS, IC50 24 h, time 34.07 min (I5) / 34.06 min (I6)): 21.4481 pmoles/min/µg protein and 20.5528 pmoles/min/µg protein and 31.2982 pmoles/min/µg protein
- OCR (AGS cells [4]; AGS, IC50 24 h, time 60.15 min (I5) / 60.16 min (I6)): 12.0701 pmoles/min/µg protein and 11.1961 pmoles/min/µg protein and 18.1823 pmoles/min/µg protein
- OCR (AGS cells [4]; AGS, IC50 24 h, time 66.63 min (I5) / 66.65 min (I6)): 12.0579 pmoles/min/µg protein and 11.0677 pmoles/min/µg protein and 17.3668 pmoles/min/µg protein
- OCR (AGS cells [4]; AGS, IC50 24 h, time 73.12 min (I5) / 73.14 min (I6)): 11.7846 pmoles/min/µg protein and 9.533 pmoles/min/µg protein and 17.3382 pmoles/min/µg protein
- ATP assay (MKN45 cells [5]): 5246 nmoles ATP/mg prot and 3320.9 nmoles ATP/mg prot and 18883.3 nmoles ATP/mg prot and 23272 nmoles ATP/mg prot and 3325.73 nmoles ATP/mg prot and 3863.84 nmoles ATP/mg prot and 4434 nmoles ATP/mg prot and 3684.47 nmoles ATP/mg prot and 4201.47 nmoles ATP/mg prot
- ATP assay (AGS cells [6]): 0.001 nmoles ATP/mg prot and 0.003 nmoles ATP/mg prot and 0.01 nmoles ATP/mg prot and 0 nmoles ATP/mg prot and 0.005 nmoles ATP/mg prot and 0.002 nmoles ATP/mg prot
- ATP assay (PANC1 cells [7]): 7880 nmoles ATP/mg prot and 13332.3 nmoles ATP/mg prot and 3956 nmoles ATP/mg prot and 3277.42 nmoles ATP/mg prot and 6180.37 nmoles ATP/mg prot and 5189.49 nmoles ATP/mg prot and 6520 nmoles ATP/mg prot and 7744.41 nmoles ATP/mg prot and 6743.81 nmoles ATP/mg prot
